Measured values from patent US20240299558A1, “PROTEOLYSIS TARGETING CHIMERAS AND POLYPHARMACOLOGICAL AGENTS TARGETING BCL-2, AND METHODS OF USE THEREOF” (University of Maryland, Baltimore, priority 2021, published 2024).

Tests used:
BCL-2^1-211 = BCL-2^1-211 (Homo sapiens, UniProt P10415); test: Fluorescence polarization competition assay (FPCA), FITC-Bak competed off BCL-2; format: binding
Experimental: Fluorescence polarization assays were performed in 96 well polypropylene F-bottom black microplates (Greiner Bio-One) with a final volume of 100 μL. […] The changes in the fluorescence polarization were then measured using a BMG PHERAstar FS multimode microplate reader equipped with two PMTs for simultaneous measurements of both the perpendicular and parallel fluorescence emission at a 485 nm excitation and 520 nm emission filter.
The fluorescence polarization competition assays were setup using a Biomek FXP Automated Liquid Handling System. […] The IC50 values were then converted to Ki values using an equation derived by Nikolovska-Coleska et al. All inhibitors were tested in triplicate.

MOLM14 AML cells = test: Luc-labelled MOLM14 AML xenograft pilot experiment in NRG mice; settings: two 5d PO treatment cycles (d1-5, d21-25), imaging d7, d14, d21, 5 mice/group
Experimental: Statistical analyses are conducted using GraphPad software. AML burden is quantified using log transformed ratio of luminescence at d7/14/21 vs do for each mouse (fold-change); groups are compared using the appropriate parametric (ANOVA; t-test, etc) or non-parametric alternative as necessary (Wilcoxon rank sum, Kruskal-Wallis). For time-to-event endpoints, Kaplan-Meier survival of groups are compared using the log-rank test. p<0.05 is considered statistically different.
On d0, after Xenogen quantification of baseline total body luminescence (AML burden), groups of 5 AML-bearing mice were treated on days 1-5, per previously established MTD PO×5d schedule, with VEN (150 mg/kg/d PO×5), as monotherapy or co-administered with SOR (30 mg/kg/d PO×5), ART (50 mg/kg/d PO×5), and/or ASP (200 IU/kg IP single dose). A second identical drug cycle was administered on d21-25. On d7, d14 and d21, each mouse was Xenogen imaged for total body luminescence, fold-change AML burden from do was calculated for each mouse, and mean (+/−SD) fold-change for each experimental group plotted.

BCL-2^1-211, sequence (P10415 1-211): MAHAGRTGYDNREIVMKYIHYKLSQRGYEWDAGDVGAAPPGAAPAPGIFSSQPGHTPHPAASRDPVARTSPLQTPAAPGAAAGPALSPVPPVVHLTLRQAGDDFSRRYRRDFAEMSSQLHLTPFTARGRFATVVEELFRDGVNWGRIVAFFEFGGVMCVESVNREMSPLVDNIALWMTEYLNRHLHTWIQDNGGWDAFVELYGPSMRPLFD

Row | Molecule | IC50 (BCL-2^1-211) | AML burden over time (fold-change total body luminescence) vs vehicle (MOLM14 AML cells) | AML burden over time (fold-change total body luminescence) vs vehicle (MOLM14 AML cells; listed as SOR)
1 | CC1(C)CCC(CN2CCN(c3ccc(C(=O)NS(=O)(=O)c4ccc(NCCOCCOCCNC(=O)C(c5ccccc5)c5ccccc5)c([N+](=O)[O-])c4)c(Oc4cnc5[nH]ccc5c4)c3)CC2)=C(c2ccc(Cl)cc2)C1 [CG-2-132] | < 20 nM | – | –
2 | CC(C)Cc1ccc([C@@H](C)C(=O)NCCOCCOCCNc2ccc(S(=O)(=O)NC(=O)c3ccc(N4CCN(CC5=C(c6ccc(Cl)cc6)CC(C)(C)CC5)CC4)cc3Oc3cnc4[nH]ccc4c3)cc2[N+](=O)[O-])cc1 [CG-3-005] | < 20 nM | – | –
3 | CC1(C)CCC(CN2CCN(c3ccc(C(=O)NS(=O)(=O)c4ccc(NCCNC(=O)CC56CC7CC(CC(C7)C5)C6)c([N+](=O)[O-])c4)c(Oc4cnc5[nH]ccc5c4)c3)CC2)=C(c2ccc(Cl)cc2)C1 [SF-7-330] | < 20 nM | – | –
4 | CNC(=O)c1cc(Oc2ccc(NC(=O)Nc3ccc(Cl)c(C(F)(F)F)c3)cc2)ccn1 [Sorafenib] | – | reduced AML burden only moderately | significant difference in AML burden only at d7 and d14
5 | PEGylated L-asparaginase | – | minimal activity | –
